# According to ChEMBL document CHEMBL3885881, “DrugMatrix”:
# Organism: Rattus norvegicus
# Experiment: DrugMatrix - Regimen: Daily Repeat
# Assay type: toxicity, organism-based, Sprague-Dawley
# Design: regimen Daily Repeat, gender Male, age 6-8 weeks
# Details: in vivo, po, route oral GAVAGE, vehicle .5 % CMC; for BASOPHIL / EOSINOPHIL / ERYTHROCYTE COUNT / HEMATOCRIT / HEMOGLOBIN / LEUKOCYTE COUNT / LYMPHOCYTE / MEAN CORPUSCULAR HEMOGLOBIN / MEAN CORPUSCULAR HEMOGLOBIN CONCENTRATION / MEAN CORPUSCULAR VOLUME / MONOCYTE / NEUTROPHIL / PLATELET COUNT: tissue Blood; for ALANINE AMINOTRANSFERASE / ALBUMIN / ALKALINE PHOSPHATASE / ASPARTATE AMINOTRANSFERASE / BLOOD UREA NITROGEN / CHLORIDE / CHOLESTEROL / CREATINE PHOSPHOKINASE / CREATININE / GLUCOSE / PHOSPHORUS / POTASSIUM / SODIUM / TOTAL BILIRUBIN / TOTAL PROTEIN: tissue Plasma
# [1] = 0 mg/kg, 72 h, dose level Control, time 3 day
# [2] = 0 mg/kg, 120 h, dose level Control, time 5 day
# [3] = 25 mg/kg, 72 h, dose level Low, time 3 day
# [4] = 25 mg/kg, 120 h, dose level Low, time 5 day
structure (smiles),measurement,setting,value
C=C(CC)C(=O)c1ccc(OCC(=O)O)c(Cl)c1Cl [ETHACRYNIC ACID],BASOPHIL,[1],0%
same,EOSINOPHIL,[1],0%
same,ERYTHROCYTE COUNT,[1],6.19 x10E6/uL
same,HEMATOCRIT,[1],36.94%
same,HEMOGLOBIN,[1],14.58 G/DL
same,LEUKOCYTE COUNT,[1],11.54 x10E3/uL
same,LYMPHOCYTE,[1],84.8%
same,MEAN CORPUSCULAR HEMOGLOBIN,[1],23.58 pg
same,MEAN CORPUSCULAR HEMOGLOBIN CONCENTRATION,[1],39.44 G/DL
same,MEAN CORPUSCULAR VOLUME,[1],59.76 fL
same,MONOCYTE,[1],1.4%
same,NEUTROPHIL,[1],13.8%
same,PLATELET COUNT,[1],1068.8 x10E3/uL
same,ALANINE AMINOTRANSFERASE,[1],38.17 u/L
same,ALBUMIN,[1],3.88 G/DL
same,ALKALINE PHOSPHATASE,[1],391.33 u/L
same,ASPARTATE AMINOTRANSFERASE,[1],69.83 u/L
same,BLOOD UREA NITROGEN,[1],15 mg/dL
same,CHLORIDE,[1],104.17 MEQ/L
same,CHOLESTEROL,[1],72.17 mg/dL
same,CREATINE PHOSPHOKINASE,[1],174.33 u/L
same,CREATININE,[1],0.58 mg/dL
same,GLUCOSE,[1],192.67 mg/dL
same,PHOSPHORUS,[1],10.52 mg/dL
same,POTASSIUM,[1],6.8 MEQ/L
same,SODIUM,[1],149.67 MEQ/L
same,TOTAL BILIRUBIN,[1],0.78 mg/dL
same,TOTAL PROTEIN,[1],6.28 G/DL
same,BASOPHIL,[2],0%
same,EOSINOPHIL,[2],0.17%
same,ERYTHROCYTE COUNT,[2],6.72 x10E6/uL
same,HEMATOCRIT,[2],40.02%
same,HEMOGLOBIN,[2],15.83 G/DL
same,LEUKOCYTE COUNT,[2],9.5 x10E3/uL
same,LYMPHOCYTE,[2],87.17%
same,MEAN CORPUSCULAR HEMOGLOBIN,[2],23.57 pg
same,MEAN CORPUSCULAR HEMOGLOBIN CONCENTRATION,[2],39.62 G/DL
same,MEAN CORPUSCULAR VOLUME,[2],59.55 fL
same,MONOCYTE,[2],1.67%
same,NEUTROPHIL,[2],11%
same,PLATELET COUNT,[2],1053.67 x10E3/uL
same,ALANINE AMINOTRANSFERASE,[2],26.33 u/L
same,ALBUMIN,[2],4.02 G/DL
same,ALKALINE PHOSPHATASE,[2],316.67 u/L
same,ASPARTATE AMINOTRANSFERASE,[2],61.33 u/L
same,BLOOD UREA NITROGEN,[2],18.67 mg/dL
same,CHLORIDE,[2],108 MEQ/L
same,CHOLESTEROL,[2],65.17 mg/dL
same,CREATINE PHOSPHOKINASE,[2],161.17 u/L
same,CREATININE,[2],0.75 mg/dL
same,GLUCOSE,[2],177.33 mg/dL
same,PHOSPHORUS,[2],9.72 mg/dL
same,POTASSIUM,[2],6.18 MEQ/L
same,SODIUM,[2],150.5 MEQ/L
same,TOTAL BILIRUBIN,[2],0.68 mg/dL
same,TOTAL PROTEIN,[2],6.55 G/DL
same,BASOPHIL,[3],0%
same,EOSINOPHIL,[3],0%
same,ERYTHROCYTE COUNT,[3],5.63 x10E6/uL
same,HEMATOCRIT,[3],33.93%
same,HEMOGLOBIN,[3],13.5 G/DL
same,LEUKOCYTE COUNT,[3],12.83 x10E3/uL
same,LYMPHOCYTE,[3],81%
same,MEAN CORPUSCULAR HEMOGLOBIN,[3],23.97 pg
same,MEAN CORPUSCULAR HEMOGLOBIN CONCENTRATION,[3],39.8 G/DL
same,MEAN CORPUSCULAR VOLUME,[3],60.23 fL
same,MONOCYTE,[3],2.67%
same,NEUTROPHIL,[3],16.33%
same,PLATELET COUNT,[3],1220 x10E3/uL
same,ALANINE AMINOTRANSFERASE,[3],34.67 u/L
same,ALBUMIN,[3],3.8 G/DL
same,ALKALINE PHOSPHATASE,[3],289.67 u/L
same,ASPARTATE AMINOTRANSFERASE,[3],61.67 u/L
same,BLOOD UREA NITROGEN,[3],16.33 mg/dL
same,CHLORIDE,[3],102.67 MEQ/L
same,CHOLESTEROL,[3],78 mg/dL
same,CREATINE PHOSPHOKINASE,[3],150.67 u/L
same,CREATININE,[3],0.67 mg/dL
same,GLUCOSE,[3],178 mg/dL
same,PHOSPHORUS,[3],11.3 mg/dL
same,POTASSIUM,[3],6.67 MEQ/L
same,SODIUM,[3],148 MEQ/L
same,TOTAL BILIRUBIN,[3],0.5 mg/dL
same,TOTAL PROTEIN,[3],6.23 G/DL
same,BASOPHIL,[4],0%
same,EOSINOPHIL,[4],0%
same,ERYTHROCYTE COUNT,[4],6.67 x10E6/uL
same,HEMATOCRIT,[4],39.93%
same,HEMOGLOBIN,[4],15.7 G/DL
same,LEUKOCYTE COUNT,[4],13.37 x10E3/uL
same,LYMPHOCYTE,[4],91.33%
same,MEAN CORPUSCULAR HEMOGLOBIN,[4],23.6 pg
same,MEAN CORPUSCULAR HEMOGLOBIN CONCENTRATION,[4],39.37 G/DL
same,MEAN CORPUSCULAR VOLUME,[4],59.9 fL
same,MONOCYTE,[4],2.33%
same,NEUTROPHIL,[4],6.33%
same,PLATELET COUNT,[4],1183.33 x10E3/uL
same,ALANINE AMINOTRANSFERASE,[4],25 u/L
same,ALBUMIN,[4],4.03 G/DL
same,ALKALINE PHOSPHATASE,[4],323.33 u/L
same,ASPARTATE AMINOTRANSFERASE,[4],56.67 u/L
same,BLOOD UREA NITROGEN,[4],14.33 mg/dL
same,CHLORIDE,[4],104.33 MEQ/L
same,CHOLESTEROL,[4],77.33 mg/dL
same,CREATINE PHOSPHOKINASE,[4],160 u/L
same,CREATININE,[4],0.6 mg/dL
same,GLUCOSE,[4],169 mg/dL
same,PHOSPHORUS,[4],10.6 mg/dL
same,POTASSIUM,[4],6.23 MEQ/L
same,SODIUM,[4],151 MEQ/L
same,TOTAL BILIRUBIN,[4],0.6 mg/dL
same,TOTAL PROTEIN,[4],6.77 G/DL
